According to PMC3476531, “Synergy of Peptide and Sugar in O-GlcNAcase Substrate Recognition” (Chemistry & Biology, 2012):
Numbering of substitutions follows the chain as printed.

Columns and labels:
Type in all cases: biochemical
hOGA Y69S = target: T1, hOGA Y69S (Homo sapiens, UniProt O60502, Y69S); experiment: hOGA Y69S mutant glycopeptide hydrolysis, substrate competition assay; details: hOGA point mutant Y69S; competition with 4MU-GlcNAc; 37°C, pH 7.4; triplicate; read-out: Michaelis constant (KM) for hOGA Y69S
T1 construct: GST (N); made in house; host or cells: transiently transfected HEK293 cells
T1 sequence (O60502 1-916 Y69S): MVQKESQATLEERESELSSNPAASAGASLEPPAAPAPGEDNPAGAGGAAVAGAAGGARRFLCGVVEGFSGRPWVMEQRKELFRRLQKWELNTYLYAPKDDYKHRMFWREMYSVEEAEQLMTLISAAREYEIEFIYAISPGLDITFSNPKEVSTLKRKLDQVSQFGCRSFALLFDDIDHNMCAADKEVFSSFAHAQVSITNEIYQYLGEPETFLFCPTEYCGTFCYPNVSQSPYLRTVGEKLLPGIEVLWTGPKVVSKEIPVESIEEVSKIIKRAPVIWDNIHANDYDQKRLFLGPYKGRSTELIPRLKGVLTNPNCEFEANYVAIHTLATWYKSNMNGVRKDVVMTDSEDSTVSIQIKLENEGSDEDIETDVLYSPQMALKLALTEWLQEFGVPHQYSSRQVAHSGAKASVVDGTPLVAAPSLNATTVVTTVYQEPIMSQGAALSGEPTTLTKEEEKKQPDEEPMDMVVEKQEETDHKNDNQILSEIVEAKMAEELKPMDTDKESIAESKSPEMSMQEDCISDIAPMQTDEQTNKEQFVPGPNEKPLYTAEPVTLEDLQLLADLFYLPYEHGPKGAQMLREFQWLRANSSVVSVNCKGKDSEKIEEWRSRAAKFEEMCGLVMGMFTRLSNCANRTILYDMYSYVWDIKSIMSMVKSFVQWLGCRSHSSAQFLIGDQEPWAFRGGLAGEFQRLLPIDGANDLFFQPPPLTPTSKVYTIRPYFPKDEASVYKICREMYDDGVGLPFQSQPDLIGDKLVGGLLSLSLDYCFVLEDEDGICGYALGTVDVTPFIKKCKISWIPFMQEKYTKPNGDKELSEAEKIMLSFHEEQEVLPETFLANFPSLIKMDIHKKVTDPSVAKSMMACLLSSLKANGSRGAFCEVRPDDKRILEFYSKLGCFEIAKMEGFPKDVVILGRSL

hOGA Y69F = target: T2, hOGA Y69F (Homo sapiens, UniProt O60502, Y69F); experiment: hOGA Y69F mutant glycopeptide hydrolysis, substrate competition assay; details: hOGA point mutant Y69F; competition with 4MU-GlcNAc; 37°C, pH 7.4; triplicate; read-out: Michaelis constant (KM) for hOGA Y69F
T2 construct: GST (N); made in house; host or cells: transiently transfected HEK293 cells
T2 sequence (O60502 1-916 Y69F): T1 sequence (O60502 1-916 Y69S) with S69F

hOGA Y69K = target: T3, hOGA Y69K (Homo sapiens, UniProt O60502, Y69K); experiment: hOGA Y69K mutant glycopeptide hydrolysis, substrate competition assay; details: hOGA point mutant Y69K; competition with 4MU-GlcNAc; 37°C, pH 7.4; triplicate; read-out: Michaelis constant (KM) for hOGA Y69K
T3 construct: GST (N); made in house; host or cells: transiently transfected HEK293 cells
T3 sequence (O60502 1-916 Y69K): T1 sequence (O60502 1-916 Y69S) with S69K

PVSVPYS(O-GlcNAc)SAQSTS [TAB1 (Ser395) 13, 13-residue O-GlcNAc glycopeptide derived from TAB1 Ser395 site]
Km (hOGA Y69S): > 4000 µM | Km (hOGA Y69F): 1100 µM | Km (hOGA Y69K): > 4000 µM

p53 (Ser149) 11: 11-residue O-GlcNAc glycopeptide derived from p53 Ser149 site
Km (hOGA Y69S): 290 ± 20 µM | Km (hOGA Y69F): 53 ± 5 µM | Km (hOGA Y69K): 350 ± 20 µM

VAHS(O-GlcNAc)GAK [hOGA (Ser405) 7, 7-residue O-GlcNAc glycopeptide derived from hOGA Ser405 site]
Km (hOGA Y69S): > 4000 µM | Km (hOGA Y69F): 1200 µM | Km (hOGA Y69K): > 4000 µM
